Assay results taken from article PMC9032381 (Diagnostics, 2022).
Values joined by “and” are separate entries in the source; they are usually repeats but may differ in a detail not shown here. Equal values may be shown once. Read-outs that look alike come from different tables or passages of the source.

[1] = measured, listed as 18F-Afatinib

C=CC(=O)Nc1cc(Nc2nccc(-c3c[nH]c4ccccc34)n2)c(OC)cc1N(C)CCN(C)C [AZ5104]
Active metabolite exposure (cited): 10 % AUC
Active metabolite potency relative to osimertinib (OSI) (cited): higher

C#Cc1cccc(Nc2ncnc3cc(OCCO)c(OCCOC)cc23)c1 [OSI413]
Active metabolite exposure (cited): 10 % AUC

CN(C)C/C=C/C(=O)Nc1cc2c(Nc3ccc([18F])c(Cl)c3)ncnc2cc1OC1CCOC1 (stereo not drawn) [^18F-afatinib]
SUV Aorta (blood SUV) (measured): 0.5 (±0.1)
SUV Brain (measured): 0.04 (0.01)
SUV Kidney (measured): 3.5 (0.7)
SUV Liver (measured): 11.8 (2.2)
SUV Lung (measured): 1.3 (0.5)
SUV Spleen (measured): 6.8 (1.0)
SUV Vertebra (measured): 2.4 (0.8)
SUV-AUC Liver (measured): 731.5 (87.4) MBq/mL and seconds
SUV-AUC Lung (measured): 98.5 (16.5) MBq/mL and seconds
TBR Brain (measured): 0.08 (0.03)
TBR Kidney (measured): 6.9 (1.8)
TBR Liver (measured): 23.3 (6.2)
TBR Lung (measured): 2.5 (1.2)
TBR Spleen (measured): 13.2 (2.3)
TBR Vertebra (measured): 4.8 (2.0)
TBR-AUC Liver (measured): 747.7 (426.3) TBR and seconds
TBR-AUC Lung (measured): 90.9 (37.9) TBR and seconds
parent fraction (measured): 70% and 35%
SUV Aorta (blood SUV) [1]: 0.5 (0.1)
SUV Tumor [1]: 1.8 (1.3) and 1.6 (0.1)
TBR Tumor [1]: 3.6 (2.4) and 3.3 (1.0)
TBR-AUC Tumor [1]: 150.7 (9.1) TBR and seconds and 113.0 (44.8) TBR

C#Cc1cccc(Nc2ncnc3cc(OCCOC)c(OCCO)cc23)c1 [OSI-420]
Active metabolite exposure (cited): 10 % AUC

C=CC(=O)Nc1cc(Nc2nccc(-c3cn(C)c4ccccc34)n2)c(OC)cc1N(C)CCNC [AZ7550]
Active metabolite exposure (cited): 10 % AUC
Active metabolite potency relative to osimertinib (OSI) (cited): as OSI

C#Cc1cccc(Nc2ncnc3cc(OCCOC)c(OCCOC)cc23)c1 [Erlotinib, reference compound]
AUC dose normalized (cited): 207 µM·h
Cmin at Css (cited): 2567 nM
Ka (cited): 0.949 h⁻¹
Metabolism Liver (cited): ~98%
Renal extraction, unchanged (cited): < 2%
Strength of basicity (cited): Weak
Target Ctrough (cited): 1271 nM
Time to Css (cited): 7 to 8 days

CN(C)C/C=C/C(=O)Nc1cc2c(Nc3ccc(F)c(Cl)c3)ncnc2cc1O[C@H]1CCOC1 [Afatinib, reference compound]
AUC dose normalized (cited): 23 µM·h
Active metabolites (cited): None
Ka (cited): 0.252 h⁻¹
Strength of basicity (cited): Strong
Target Ctrough (cited): 50 nM
Time to Css (cited): 8 days

C=CC(=O)Nc1cc(Nc2nccc(-c3cn(C)c4ccccc34)n2)c(OC)cc1N(C)CCN(C)C [Osimertinib, reference compound]
AUC dose normalized (cited): 75 µM·h
Cmin at Css (cited): 417 nM
Metabolism Liver (cited): ~99%
Renal extraction, unchanged (cited): 2%
Strength of basicity (cited): Strong
Target Ctrough (cited): 332 nM
Time to Css (cited): 15 days

C=CC(=O)Nc1cc(Nc2nccc(-c3cn([11CH3])c4ccccc34)n2)c(OC)cc1N(C)CCN(C)C [^11C-osimertinib]
parent fraction, initial decline (drop to) (measured): 50%
parent fraction, plateau (measured): 28–29%
